The values below come from ChEMBL document CHEMBL4699525, “Design and synthesis of new indanol-1,2,3-triazole derivatives as potent antitubercular and antimicrobial agents” (Bioorg Med Chem Lett, 2020).

The target of test [1] is T1, Enoyl-[acyl-carrier-protein] reductase [NADH] (Mycobacterium tuberculosis) (UniProt P9WGR1).
T1 sequence (whole entry): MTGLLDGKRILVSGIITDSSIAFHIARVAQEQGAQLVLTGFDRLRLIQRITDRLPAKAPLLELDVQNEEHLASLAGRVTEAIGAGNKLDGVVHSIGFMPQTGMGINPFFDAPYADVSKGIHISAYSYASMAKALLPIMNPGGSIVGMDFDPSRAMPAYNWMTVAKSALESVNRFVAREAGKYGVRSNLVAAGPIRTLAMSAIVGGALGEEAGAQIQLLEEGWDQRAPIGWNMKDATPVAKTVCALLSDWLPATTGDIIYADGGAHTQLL
Put plainly: Inhibition of InhA in Mycobacterium tuberculosis H37Rv assessed antitubercular activity by measuring inhibition of bacterial growth incubated for 7 days by MABA assay. To be noted: time 7.0 day.

For test [2], the system named is Staphylococcus aureus. Nature of the test: Antibacterial activity against Staphylococcus aureus assessed as inhibition of bacterial growth incubated for 24 hrs by agar well diffusion method. In kind it is functional. In general terms: In agar diffusion tests the substance spreads into inoculated agar from a disc or well.
Test [3] has as its system Pseudomonas aeruginosa. Put plainly: Antibacterial activity against Pseudomonas aeruginosa assessed as inhibition of bacterial growth incubated for 24 hrs by agar well diffusion method. It is filed as functional.
Test [4] deals with Salmonella enterica subsp. enterica serovar Abony. Put plainly: Antibacterial activity against Salmonella abony assessed as inhibition of bacterial growth incubated for 24 hrs by agar well diffusion method. It is filed as functional.
The test system of test [5] is Salmonella typhi. Put plainly: Antibacterial activity against Salmonella typhi assessed as inhibition of bacterial growth incubated for 24 hrs by agar well diffusion method. It is filed as functional. To be noted: Salmonella enterica subsp. enterica serovar Typhi.
Test [6] relates to Bacillus subtilis. Put plainly: Antibacterial activity against Bacillus subtilis assessed as inhibition of bacterial growth incubated for 24 hrs by agar well diffusion method. In kind it is functional.
Test [7] has as its system Candida albicans. Put plainly: Antifungal activity against Candida albicans assessed as inhibition of fungal growth incubated for 24 hrs by agar well diffusion method. It is filed as functional.
For test [8], the system named is Saccharomyces cerevisiae. Put plainly: Antifungal activity against Saccharomyces cerevisiae assessed as inhibition of fungal growth incubated for 24 hrs by agar well diffusion method. In kind it is functional.
Test [9] concerns Escherichia coli. Nature of the test: Antibacterial activity against Escherichia coli assessed as inhibition of bacterial growth incubated for 24 hrs by agar well diffusion method. It is filed as functional.
Test [10] relates to Klebsiella aerogenes. Nature of the test: Antibacterial activity against Enterobacter aerogenes assessed as inhibition of bacterial growth incubated for 24 hrs by agar well diffusion method. It is filed as functional.
Test [11] has as its system Aspergillus niger. Nature of the test: Antifungal activity against Aspergillus niger assessed as inhibition of fungal growth incubated for 24 hrs by agar well diffusion method. In kind it is functional.
In test [12] the test system is Bacillus cereus. Put plainly: Antibacterial activity against Bacillus cereus assessed as inhibition of bacterial growth incubated for 24 hrs by agar well diffusion method. It is filed as functional.
For test [13], the system named is Shigella boydii. Put plainly: Antibacterial activity against Shigella boydii assessed as inhibition of bacterial growth incubated for 24 hrs by agar well diffusion method. It is filed as functional.

The structures appear in SMILES notation. In brackets after ≈: the same amount, converted by molar mass. Activity calls are given as the source filed them. The rule behind the calls is not given here. Some results are limits rather than exact numbers.

`COc1ccc(NC(=O)Cn2cc(COc3ccc4c(c3)CCC4)nn2)cc1` displayed an MIC in test [1] of more than 25 µM. In addition, the “diameter of the inhibition zone (DIZ)” value in [2], in [3], in test [4], in test [5], in test [6] and in test [7] was “inactive” each time. The “diameter of the inhibition zone (DIZ)” value in test [8], in test [9], in test [10], in test [11], in [12] and in [13] was “inactive” throughout.
Regarding `Brc1ccc(-n2cc(COc3ccc4c(c3)CCC4)nn2)cc1`, in test [1], the MIC is more than 25 µM. Moreover, the “diameter of the inhibition zone (DIZ)” value in test [2], in test [3], in test [4], in test [5], in test [6] and in [10] was “inactive” each time. For the same compound, the “diameter of the inhibition zone (DIZ)” value in [11], in [12] and in test [13] was “inactive” in each case. The “diameter of the inhibition zone (DIZ)” value in test [7] turned out to be 11 mm; in test [8] it was 7 mm; in test [9] it was 8 mm.
Turning to `CC[C@@H](CO)NCCN[C@@H](CC)CO`, the MIC in [1] was determined as 3.12 µM (≈ 0.638 µg/mL).
`O=C(O)c1cn(C2CC2)c2cc(N3CCNCC3)c(F)cc2c1=O` registered an MIC in [1] of 1.56 µM (≈ 0.517 µg/mL).
In the case of `Cc1cc([N+](=O)[O-])ccc1NC(=O)Cn1cc(COc2ccc3c(c2)CCC3)nn1`, in test [1], the MIC is more than 25 µM. For the same compound, the “diameter of the inhibition zone (DIZ)” value in [2], in test [3], in test [4], in test [5], in [6] and in [7] was “inactive” throughout. In addition, the “diameter of the inhibition zone (DIZ)” value in [8], in test [9], in test [10], in test [11] and in test [12] was “inactive” in each case.
In test [1], `O=C(Cn1cc(COc2ccc3c(c2)CCC3)nn1)Nc1ccccc1Cl` registered an MIC of more than 25 µM. The “diameter of the inhibition zone (DIZ)” value in [2], in test [3], in [4], in test [5], in test [6] and in test [7] was “inactive” each time. In addition, the “diameter of the inhibition zone (DIZ)” value in [8], in test [9], in [10], in test [11] and in test [12] was “inactive” throughout.
In turn, `CCc1ccc(-n2cc(COc3ccc4c(c3)CCC4)nn2)cc1` returned an MIC in [1] of more than 25 µM. Also, the entries for the “diameter of the inhibition zone (DIZ)” value in [2] and in test [7] were 7 mm and 13 mm, respectively. The “diameter of the inhibition zone (DIZ)” value in [3], in test [4], in test [5], in [6], in test [9] and in test [10] was “inactive” throughout. For the same compound, the “diameter of the inhibition zone (DIZ)” value in test [11], in test [12] and in test [13] was “inactive” in each case.
